Earlier results on 6 compounds are cited in patent US20070148689A1, “Compositions and methods for the prevention, treatment and detection of tuberculosis and other diseases” (priority 2000, published 2007).

The target in one series is CO(L)-deficient CODH (Rhodospirillum rubrum, UniProt P31896).
The conditions of series [1]: chelator by intraperitoneal injection shortly after oral or intraperitoneal administration of nickel.
The next series has as its target CODH (Neomoorella thermoacetica, UniProt P27988).
The conditions of series [2]: 10% DTPA in an oil-in-water emulsion.

Sequence of CODH (P27989 whole entry): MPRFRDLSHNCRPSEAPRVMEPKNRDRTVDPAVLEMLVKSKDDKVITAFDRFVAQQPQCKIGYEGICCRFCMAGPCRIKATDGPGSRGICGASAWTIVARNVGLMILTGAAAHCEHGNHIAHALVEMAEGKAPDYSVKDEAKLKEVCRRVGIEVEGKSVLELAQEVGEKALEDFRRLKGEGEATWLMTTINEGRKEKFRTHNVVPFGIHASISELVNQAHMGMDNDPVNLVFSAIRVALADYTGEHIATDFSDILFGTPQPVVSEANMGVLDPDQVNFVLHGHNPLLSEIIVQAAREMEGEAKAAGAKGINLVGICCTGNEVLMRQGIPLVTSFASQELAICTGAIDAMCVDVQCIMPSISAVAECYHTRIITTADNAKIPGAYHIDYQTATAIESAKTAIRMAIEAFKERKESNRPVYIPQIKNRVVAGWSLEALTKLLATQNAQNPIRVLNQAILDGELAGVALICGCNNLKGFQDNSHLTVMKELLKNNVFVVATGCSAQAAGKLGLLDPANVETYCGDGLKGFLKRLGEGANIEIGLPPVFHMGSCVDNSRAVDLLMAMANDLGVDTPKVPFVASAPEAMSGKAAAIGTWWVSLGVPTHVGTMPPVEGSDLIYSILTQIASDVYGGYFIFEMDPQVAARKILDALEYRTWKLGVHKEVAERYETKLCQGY
Sequence of CODH (P27988 whole entry): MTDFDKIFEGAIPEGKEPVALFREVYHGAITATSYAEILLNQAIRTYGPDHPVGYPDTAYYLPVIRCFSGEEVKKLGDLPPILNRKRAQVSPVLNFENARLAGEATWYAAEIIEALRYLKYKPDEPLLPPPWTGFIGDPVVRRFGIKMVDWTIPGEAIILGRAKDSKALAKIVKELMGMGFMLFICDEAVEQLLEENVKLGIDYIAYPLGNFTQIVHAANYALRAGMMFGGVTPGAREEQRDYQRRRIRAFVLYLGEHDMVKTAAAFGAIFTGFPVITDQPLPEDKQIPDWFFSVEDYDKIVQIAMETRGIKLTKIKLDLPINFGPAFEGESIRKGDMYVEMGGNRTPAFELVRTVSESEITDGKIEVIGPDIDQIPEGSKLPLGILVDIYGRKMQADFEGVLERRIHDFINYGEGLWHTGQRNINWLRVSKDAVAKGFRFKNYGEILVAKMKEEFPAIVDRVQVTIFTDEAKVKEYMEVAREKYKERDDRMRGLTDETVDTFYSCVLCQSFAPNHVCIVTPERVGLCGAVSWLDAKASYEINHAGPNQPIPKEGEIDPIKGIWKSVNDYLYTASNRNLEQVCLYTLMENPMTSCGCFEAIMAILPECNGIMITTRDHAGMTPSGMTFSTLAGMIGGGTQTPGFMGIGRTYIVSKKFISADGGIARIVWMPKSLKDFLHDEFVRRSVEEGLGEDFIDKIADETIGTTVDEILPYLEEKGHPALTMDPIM
Sequence of CO(L)-deficient CODH (P31896 whole entry): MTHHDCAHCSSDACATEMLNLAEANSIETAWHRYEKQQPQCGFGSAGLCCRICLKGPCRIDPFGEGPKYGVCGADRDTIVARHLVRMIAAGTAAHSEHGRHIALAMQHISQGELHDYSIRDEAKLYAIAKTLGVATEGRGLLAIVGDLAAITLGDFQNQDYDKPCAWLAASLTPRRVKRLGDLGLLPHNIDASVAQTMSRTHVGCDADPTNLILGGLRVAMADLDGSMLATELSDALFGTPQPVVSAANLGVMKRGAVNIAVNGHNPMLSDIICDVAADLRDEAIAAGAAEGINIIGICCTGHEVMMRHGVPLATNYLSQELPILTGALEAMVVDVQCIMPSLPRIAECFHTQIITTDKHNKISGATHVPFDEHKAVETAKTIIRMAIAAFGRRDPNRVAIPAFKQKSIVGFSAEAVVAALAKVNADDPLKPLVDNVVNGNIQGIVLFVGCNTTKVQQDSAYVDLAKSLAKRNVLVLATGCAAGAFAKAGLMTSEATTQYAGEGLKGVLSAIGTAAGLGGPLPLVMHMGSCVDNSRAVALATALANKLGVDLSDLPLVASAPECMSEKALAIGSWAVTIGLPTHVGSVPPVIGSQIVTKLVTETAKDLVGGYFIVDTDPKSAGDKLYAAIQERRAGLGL

With `CC(=NO)C(C)=NO` [dimethylglyoxime], the “Removal of Ni from CO(L)-deficient CODH by treatment” value on CO(L)-deficient CODH was “can be removed”.

Regarding `O=C(O)[C@@H](S)[C@@H](S)C(=O)O` [DMSA, Meso-2,3-dimercaptosuccinic acid], the Water solubility entry is reported as “water-soluble”. Further, the Toxicity entry (orally-administered metal chelator) is “non-toxic”.

For `CCN(CC)C(=S)SSC(=S)N(CC)CC` [TTD, Tetraethylthiuram disulphide], the “Whole-body retention of nickel” value in series [1] is “increased”.

With `CCN(CC)C(=S)[S-].[Na+]` [DDC, Sodium diethyldithiocarbamate], the “Whole-body retention of nickel” value in series [1] is recorded as “increased”.

Turning to `c1cnc2c(c1)ccc1cccnc12` [1,10phenanthroline], at CODH, the “Removal of the Ni ion in the A-cluster of CODH” value is on record as “selectively removed”. On CODH (after Ni removal by the chelator), the “Synthesis of acetyl-coenzyme A by CODH without this Ni” value is reported as “can't catalyze”.

Turning to `O=C(O)CN(CCN(CC(=O)O)CC(=O)O)CCN(CC(=O)O)CC(=O)O` [DTPA, diethylenetriaminepentaacetic acid], in series [2], the “Preventive effect in nickel-sensitized patients” value is on record as “preventive effect”.
